Source: US20170237129A1, “Quaternary Ammonium Halides With Ether Functional Groups For Use As Battery Electrolytes” (Albemarle Corporation, priority 2014, published 2017)

Columns and labels:
Assay type in all cases: physicochemical
[1] = Cloud point determination; conditions: 0.7M quat in 2.5M zinc bromide water solution
Procedure: By “cloud point” is meant the cloud point of an aqueous solution containing 0.7 M complexing agent and 2.5 M zinc bromide.
A 0.7M quaternary ammonium bromide in 2.5M Zinc Bromide water solution was prepared. • 2. The solution was transferred to a jacketed flask with a stirring bar and temperature monitor. • 3. The solution was warmed to 15° C. above the expected cloud point. If necessary, any moisture or impurities were removed by filtration. • 4. The solution was stirred, with speed adjustment to about 250 rpm, while avoiding the formation of bubbles. • 5. The solution was cooled gradually (cooling rate of about 1° C./5 min). • 6. The sample was inspected carefully for signs of cloudiness, and the temperature at which cloudiness was observed was recorded to the nearest 0.1° C.

[2] = Measurement of free bromine in aqueous phase; conditions: stirred 24 hrs, top aqueous phase, wt %
Source text: The forward operation of a bromine-containing battery generally involves the conversion of elemental bromine to ionic bromine. The quat/Br2 complex results from an equilibrium reaction in which the Br2 is released from the complex as the concentration of free Br2 in the aqueous electrolyte drops during battery operation. In its fully charged state, the electrolyte solution inevitably contains some degree of uncomplexed bromine. A measure of a quat's ability to complex elemental bromine is the amount of elemental bromine left in solution when the complexation reaction proceeds to equilibrium. Such bromine is referred to as “free bromine.” Measurement of free bromine in aqueous phase is set forth in Example 1.
Two slightly different methods were used to prepare the electrolyte compositions, A) one containing 0.7M quat and B) the other containing 0.8M quat. In composition A, 2.0 moles of bromine was added to an aqueous solution containing 0.5 moles of zinc bromide and 0.7 moles of the quat. The two-phase mixture was stirred for 24 hrs. and then the phases were allowed to settle. The top aqueous phase was sampled for free bromine measurement. In composition B, 1.44 moles of bromine was added to an aqueous solution containing 0.5 moles of zinc bromide, 0.4 moles of zinc chloride and 0.8 moles of the quat. The top aqueous phase obtained after stirring for 24 hrs. was used for free bromine measurement.
A 250-ml Erlenmeyer flask was charged with 50 ml of deionized water and weighed (A). A sample of the clear aqueous phase was passed through glass wool to remove any suspended organic phase and then added to the Erlenmeyer flask. The flask was weighed again (B) and the difference in weight (B-A) was noted as the weight of the sample. About 20 ml of 20% potassium iodide solution followed by about 5 ml of starch solution was added to the flask. The resulting dark mixture was titrated against 0.02N sodium thiosulfate solution. The end-point was the disappearance of purple color. Free bromine (wt %) was calculated in the following manner:
Wt % free Br2=Volume (ml) of sodium Thiosulfate×Normality of Sodium thisosulfate/Sample Weight.

[3] = Free bromine in electrolyte with chloroquat or bromoquat (Example 8); conditions: 0.84 M zinc bromide, 0.8 M quat, 1.44 M bromine; stirred 24 hrs at 35° C.
Procedure: Chloride ions are added to the electrolyte in amounts sufficient to reduce the amount of free bromine present and increase the electrolyte conductivity during charging of the cell, Chloride ions in the electrolyte may come from zinc chloride or quaternary ammonium chloride complexing agent. Experiment 1 of Example 8: An aqueous electrolyte system was prepared having 0.84 M zinc bromide, 0.8 M chioroquat (N-methyl, N-butyl pyrrolidinium chloride) and 1.44 M bromine. After the sample was stirred for 24 hrs at 35° C., the amount of free bromine present in the electrolyte was 0.26%. Experiment 2 of Example 8: An aqueous electrolyte system was prepared having 0.84 M zinc bromide, 0.8 M bromoquat (N-methyl, N-butyl pyrrolidinium bromide) and 1.44 M bromine. After the sample was stirred for 24 hrs at 35° C., the amount of free bromine present in the electrolyte was 0.25%.

[4] = 0.7M quat (composition A: 2.0 moles bromine, 0.5 moles zinc bromide, 0.7 moles quat)
[5] = 0.8M quat (composition B: 1.44 moles bromine, 0.5 moles zinc bromide, 0.4 moles zinc chloride, 0.8 moles quat)

SMILES	Solubility in ZnBr2 Cloud Point [1]	Free Br2 [2, 4]	Free Br2 [2, 5]	also measured
CCCC[N+](C)(C)CCOC.[Br-] [Compound 1, Dimethylbutylether Quat Bromide]	0.7M, 29 C.	0.7M 0.28%		
CC[N+](CC)(CC)CCOC.[Br-] [Compound 2, (2-methoxyethyl)-triethylammonium bromide]	0.7M, <-10.5 C.	0.7M 0.658%	0.8M 0.467%	
CC[N+](C)(CC)CCOC.[Br-] [Compound 4, diethylmethyl-(2-methoxyethyl)ammonium bromide]	0.7M, <-10.5 C.	0.7M 0.70%		
CCCC[N+]1(C)CCCC1.[Br-] [bromoquat, N-methyl, N-butyl pyrrolidinium bromide]				amount of free bromine present in the electrolyte [3]: 0.25%
CCCC[N+]1(C)CCCC1.[Cl-] [chioroquat, N-methyl, N-butyl pyrrolidinium chloride]				amount of free bromine present in the electrolyte [3]: 0.26%

More lines, main results first:

Solubility in ZnBr2 Cloud Point [1]	SMILES	Free Br2 [2, 4]	Free Br2 [2, 5]	also measured
0.7M, 41.2 C.	CCC[N+](CC)(CC)CC.[Br-] [Compound 5, triethylpropylammonium bromide]	0.7M 0.089%		Free Br2 ([2]; 0.7M quat (composition A: 2.0 moles bromine, 0.5 moles zinc bromide, 0.7 moles quat), listed as compound 5): 0.089%
0.7M, 11.9 C.	CC[N+]1(CC)CCCCC1.[Br-] [Compound 9, Diethyl Piperidinium Bromide]		0.8M 0.26%	Free Br2 ([2]; 0.8M quat (composition B: 1.44 moles bromine, 0.5 moles zinc bromide, 0.4 moles zinc chloride, 0.8 moles quat), listed as compound 9): 0.26%
0.7M, 45.8 C.	CCC[N+]1(CC)CCCCC1 [Compound 10, EthyPropyl Piperidinium Bromide]		0.8M 0.026%	Free Br2 ([2]; 0.8M quat (composition B: 1.44 moles bromine, 0.5 moles zinc bromide, 0.4 moles zinc chloride, 0.8 moles quat), listed as compound 10): 0.026%
